Where “and” joins values, the source holds several entries; their conditions need not be identical. Equal values may be shown once.
Legend:
[1] = pH 1.5, 37 °C; cited from earlier work
[2] = Rat administration test, urinary excretion
[3] = Microsomal metabolism test, rat liver microsomes
[4] = Microsomal metabolism test, human liver microsomes
[5] = rat no. 1, urine 0–4 h, BocMA 20 mg/kg i.p.
[6] = rat no. 1, urine 4–8 h, BocMA 20 mg/kg i.p.
[7] = rat no. 1, urine 8–24 h, BocMA 20 mg/kg i.p.
[8] = rat no. 1, urine 24–48 h, BocMA 20 mg/kg i.p.
[9] = rat no. 2, urine 0–4 h, BocMA 20 mg/kg i.p.
[10] = rat no. 2, urine 4–8 h, BocMA 20 mg/kg i.p.
[11] = rat no. 2, urine 8–24 h, BocMA 20 mg/kg i.p.
[12] = rat no. 3, urine 0–4 h, BocMA 20 mg/kg i.p.
[13] = rat no. 3, urine 4–8 h, BocMA 20 mg/kg i.p.
[14] = rat no. 3, urine 8–24 h, BocMA 20 mg/kg i.p.
[15] = rat no. 3, urine 24–48 h, BocMA 20 mg/kg i.p.
[16] = rat no. 3, urine 48–72 h, BocMA 20 mg/kg i.p.

## CC(Cc1ccccc1)N(C)C(=O)OC(C)(C)C (centres unmarked) [BocMA, N-tert-butoxycarbonylmethamphetamine]
[1]
  Half-life in model gastric juice solution: 50 min
[2]; average of 3 rats, urine 0–72 h total, BocMA 20 mg/kg i.p.
  BocMA absolute amount in urine: 16000 ng
[2]; [5]
  BocMA absolute amount in urine: 87 ng
  BocMA concentration in urine: 58 ng/mL
[2]; rat no. 1, urine 0–72 h total, BocMA 20 mg/kg i.p.
  BocMA absolute amount in urine: 240 ng
[2]; [6]
  BocMA absolute amount in urine: 8.9 ng
  BocMA concentration in urine: 8.9 ng/mL
[2]; [7]
  BocMA absolute amount in urine: 59 ng
  BocMA concentration in urine: 7.4 ng/mL
[2]; [8]
  BocMA absolute amount in urine: 84 ng
  BocMA concentration in urine: 12 ng/mL
[2]; [9]
  BocMA absolute amount in urine: 190 ng
  BocMA concentration in urine: 95 ng/mL
[2]; rat no. 2, urine 0–72 h total, BocMA 20 mg/kg i.p.
  BocMA absolute amount in urine: 310 ng
[2]; [10]
  BocMA absolute amount in urine: 78 ng
  BocMA concentration in urine: 39 ng/mL
[2]; [11]
  BocMA absolute amount in urine: 44 ng
  BocMA concentration in urine: 2.9 ng/mL
[2]; [12]
  BocMA absolute amount in urine: 2700 ng
  BocMA concentration in urine: 5400 ng/mL
[2]; rat no. 3, urine 0–72 h total, BocMA 20 mg/kg i.p.
  BocMA absolute amount in urine: 15000 ng
[2]; [13]
  BocMA absolute amount in urine: 4400 ng
  BocMA concentration in urine: 2200 ng/mL
[2]; [14]
  BocMA absolute amount in urine: 6800 ng
  BocMA concentration in urine: 680 ng/mL
[2]; [15]
  BocMA absolute amount in urine: 660 ng
  BocMA concentration in urine: 83 ng/mL
[2]; [16]
  BocMA absolute amount in urine: 810 ng
  BocMA concentration in urine: 90 ng/mL
[2]; rat urine over 72 h, average, n = 3
  Excreted BocMA as the unchanged form, share of the administered quantity: 0.13%
[2]; urine 0–72 h, BocMA 20 mg/kg i.p., n = 3
  Detection in rat urine (LC–QToF–MS): detected in urine from all rats
[3]; RLM test
  Incubation time at which peak intensity was highest: 0 min
[3]; RLM, first 3 min
  BocMA degraded: 83%
[3]; RLM, mean ± SD, n = 3
  ER (extraction ratio): 0.92 and 0.92 ± 0.01
[3]; RLM, scaled to whole liver, mean ± SD, n = 3
  CLint (estimated intrinsic clearance): 640 ± 70 mL/min/kg body wt.
[3]; RLM, well-stirred model without protein binding, mean ± SD, n = 3
  CLH (estimated hepatic clearance): 51 ± 1 mL/min/kg body wt.
[3]; rat, microsomes, pH 7.4
  half-life at 1 μg/mL: 2 ± 0.2 min
  microsomal CLint at 1 μg/mL: 360 ± 40 µL/min/mg
[4]; HLM, first 8 min
  BocMA degraded: 80%
[4]; HLM, mean ± SD, n = 3
  ER (extraction ratio): 0.90 and 0.90 ± 0.01
[4]; HLM, scaled to whole liver, mean ± SD, n = 3
  CLint (estimated intrinsic clearance): 200 mL/min/kg body wt. and 200 ± 20 mL/min/kg body wt.
[4]; HLM, well-stirred model without protein binding, mean ± SD, n = 3
  CLH (estimated hepatic clearance): 19 ± 1 mL/min/kg body wt.
[4]; human, microsomes, pH 7.4
  half-life at 1 μg/mL: 3.2 ± 0.3 min
  microsomal CLint at 1 μg/mL: 220 ± 20 µL/min/mg

From publication PMC9715518, “Human and rat microsomal metabolites of N-tert-butoxycarbonylmethamphetamine and its urinary metabolites in rat” (Forensic Toxicology, 2021)
